Consider 18 compounds from patent US20250230147A1, “LACTAMS AS CBL-B INHIBITORS” (Genentech, Inc., priority 2021, published 2025).

In general, IC50 refers to the point on the concentration scale where inhibition reaches its midpoint. Lower therefore signals greater potency in that assay.

Experiment [1] deals with c-Cbl (Homo sapiens (Human), UniProt P22681). Kind of experiment: C-Cbl LCK Ub TR-FRET assay (c-cbl Lck HTRF). The class given is biochemical. The note with it: for (fold-selectivity): C-cbl Lck HTRF IC50 relative to Cbl-b Lck HTRF IC50. The method, then: 6 μL of detection mixture was added to all wells and briefly centrifuged before incubating for 20 min at room temperature. […] IC50 was generated using no LCK as the low control and DMSO as the high control.
c-Cbl, sequence (P22681 47-435): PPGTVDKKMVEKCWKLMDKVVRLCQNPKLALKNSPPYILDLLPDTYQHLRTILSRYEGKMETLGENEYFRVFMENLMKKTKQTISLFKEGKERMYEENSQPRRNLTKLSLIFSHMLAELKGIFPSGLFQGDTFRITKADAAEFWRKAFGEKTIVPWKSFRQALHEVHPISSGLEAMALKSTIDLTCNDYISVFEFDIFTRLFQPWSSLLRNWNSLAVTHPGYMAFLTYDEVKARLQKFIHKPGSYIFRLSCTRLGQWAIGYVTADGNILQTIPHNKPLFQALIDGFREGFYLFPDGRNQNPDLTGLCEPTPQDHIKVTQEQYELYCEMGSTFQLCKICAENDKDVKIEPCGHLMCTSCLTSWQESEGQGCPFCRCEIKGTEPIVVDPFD
A general note: Time-resolved FRET reads energy transfer from a long-lived donor to a nearby acceptor.

In experiment [2] the target is Cbl-b (Homo sapiens (Human), UniProt Q13191). Briefly: Cbl-b LCK Ub TR-FRET assay (Cbl-b Lck HTRF). Type of experiment: biochemical. How it is done:
Compounds were 3-fold serially diluted in DMSO in a 384-well polypropylene plate (#P-05525-BC; Labcyte) to generate a source plate with 10 concentrations of each compound, top concentration=2 mM. 80 nL of DMSO or compounds were transferred to each well of a black 384-well ProxiPlate (#6008260; PerkinElmer) using a Labcyte Echo. 1×assay buffer (50 mM HEPES pH7.0, 100 mM NaCl, 0.01% BSA, 0.01% Triton-X100, 1 mM DTT), 2×enzyme solution (16 nM Biotin-Cbl-b or 12 nM Biotin-c-Cbl in 1× assay buffer), 2×kinase mixture (120 nM His-LCK, 1 mM ATP, 10 mM MgCl2 in assay buffer) and 2.33×detection mixture (4.66×solution 1: 163 nM Anti-HA-D2 antibody (#610HADAB; PerkinElmer), 27.96 nM Streptavidin-EU (#AD0062; PerkinElmer), 1.398 mM EDTA in 1×assay buffer+4.66×solution 2: 2.796 μM UBE2D2/Methylated-HA-Ubiquitin thioester adduct (BostonBiochem) in 1×assay buffer) were prepared. 4 μL of 2× enzyme solution was added to each well containing compound, briefly centrifuged to mix, and incubated for 60 min at room temperature. 4 μL of 2× kinase mixture was added, briefly centrifuged to mix, and incubated for 90 min. at room temperature. 6 μL of detection mixture was added to all wells and briefly centrifuged before incubating for 20 min at room temperature. Plates were read for TR-FRET using an Envision at excitation 340 nm, emission at 615 and 665 nm, 4 flashes per well. IC50 was generated using no LCK as the low control and DMSO as the high control.
Cbl-b Lck HTRF data in Table 7 is measured according to Example 76 herein; C-cbl Lck HTRF data is measured according to Example 76 herein.

Cbl-b, sequence (Q13191 40-426): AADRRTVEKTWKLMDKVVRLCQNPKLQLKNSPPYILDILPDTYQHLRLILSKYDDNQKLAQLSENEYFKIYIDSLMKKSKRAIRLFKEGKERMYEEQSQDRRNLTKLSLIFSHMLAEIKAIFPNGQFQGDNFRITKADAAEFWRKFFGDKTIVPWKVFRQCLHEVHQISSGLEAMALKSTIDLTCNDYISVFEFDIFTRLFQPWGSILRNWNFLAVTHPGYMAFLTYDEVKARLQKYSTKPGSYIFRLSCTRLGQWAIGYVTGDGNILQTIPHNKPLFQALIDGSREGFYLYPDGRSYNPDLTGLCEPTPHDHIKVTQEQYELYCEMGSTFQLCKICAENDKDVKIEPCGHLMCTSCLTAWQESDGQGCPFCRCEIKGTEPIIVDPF

Take `CC(C)[C@@H]1CN(Cc2cc3c(c(C(F)(F)F)c2)CN(c2cccc(C4([C@H](F)c5nncn5C)COC4)c2)C3=O)CCN1` [Compound 93, 2-(3-(3-((S)-fluoro(4-methyl-4H-1,2,4-triazol-3-yl)methyl)oxetan-3-yl)phenyl)-6-(((R)-3-isopropylpiperazin-1-yl)methyl)-4-(trifluoromethyl)isoindolin-1-one]: the figures for the IC50 in experiment [1] and in experiment [2] were 78 nM and 68 nM, respectively. Also, in experiment [1], the “(fold-selectivity)” value is 1.1x.
The corresponding values for `Cn1cnnc1[C@@H](F)C1(c2cccc(N3Cc4c(cc(CN5CCC[C@@H]5CO)cc4C(F)(F)F)C3=O)c2)COC1` [Compound 148, 2-(3-(3-((S)-fluoro(4-methyl-4H-1,2,4-triazol-3-yl)methyl)oxetan-3-yl)phenyl)-6-(((R)-2-(hydroxymethyl)pyrrolidin-1-yl)methyl)-4-(trifluoromethyl)isoindolin-1-one] are 730 nM, 690 nM and 1.1x.
For `Cn1cnnc1CC1(c2cccc(N3Cc4c(cc(CN5CC(C)(O)C5)cc4C(F)(F)F)C3=O)c2)CC(F)(F)C1` [Compound 17, 2-(3-(3,3-difluoro-1-((4-methyl-4H-1,2,4-triazol-3-yl)methyl)cyclo-butyl)phenyl)-6-((3-hydroxy-3-methylazetidin-1-yl)methyl)-4-(trifluoromethyl)isoindolin-1-one], in that order: 14 nM, 17 nM and 0.85x.
Turning to `CC(C)[C@H]1CN(C)CCN1Cc1cc2c(c(C(F)(F)F)c1)CN(c1cc(C3([C@@H](F)c4nncn4C)CCC3)cc(NCCO)n1)C2=O` [Compound 233, 2-(4-(1-((R)-fluoro(4-methyl-4H-1,2,4-triazol-3-yl)methyl)cyclobutyl)-6-((2-hydroxyethyl)amino)pyridin-2-yl)-6-(((S)-2-isopropyl-4-methyl-piperazin-1-yl)methyl)-4-(trifluoromethyl)isoindolin-1-one], in experiment [1], the half-inhibitory concentration (IC50) is 7.1 nM and the “(fold-selectivity)” value is listed as “(0.94x)”. The compound also came in with a 50% inhibitory concentration (IC50) in experiment [2] of 8.3 nM.
Regarding `CC(C)[C@H]1CN(C)CCN1Cc1cc2c(c(C(F)(F)F)c1)CN(c1cccc(C3(Cc4nncn4C)COC3)c1)C2=O` [Compound 407, (S)-6-((2-isopropyl-4-methylpiperazin-1-yl)methyl)-2-(3-(3-((4-methyl-4H-1,2,4-triazol-3-yl)methyl)oxetan-3-yl)phenyl)-4-(trifluoromethyl)isoindolin-1-one], in experiment [1], the concentration for half-maximal inhibition (IC50) came to 5.7 nM and the “(fold-selectivity)” value was “(0.80x)”. The compound also returned an IC50 in experiment [2] of 7.1 nM.
As to `CC1(NCc2cc3c(c(C(F)(F)F)c2)CN(c2cccc(C4(Cc5nncn5C5CC5)CC(F)(F)C4)c2)C3=O)CCC1` [Compound 492, 2-(3-(1-((4-cyclopropyl-4H-1,2,4-triazol-3-yl)methyl)-3,3-difluorocyclobutyl)phenyl)-6-(((1-methylcyclobutyl)amino)methyl)-4-(trifluoromethyl)isoindolin-1-one], in experiment [1], the IC50 is 60 nM and the “(fold-selectivity)” value was “(1.0x)”. In experiment [2], this compound returned an IC50 of 57 nM.
For `Cn1cnnc1[C@H](F)C1(c2cccc(N3Cc4c(cc(CN5CC[C@H](F)C5)cc4C(F)(F)F)C3=O)c2)COC1` [Compound 82, 2-(3-(3-((R)-fluoro(4-methyl-4H-1,2,4-triazol-3-yl)methyl)oxetan-3-yl)phenyl)-6-(((S)-3-fluoropyrrolidin-1-yl)methyl)-4-(trifluoromethyl)isoindolin-1-one], in that order: 68 nM, 2.4x and 28 nM.
The corresponding values for `CNCc1cc2c(c(C(F)(F)F)c1)CN(c1cccc(C3([C@@H](F)c4nncn4C)COC3)c1)C2=O` [Compound 212, (R)-2-(3-(3-(fluoro(4-methyl-4H-1,2,4-triazol-3-yl)methyl)oxetan-3-yl)phenyl)-6-((methylamino)methyl)-4-(trifluoromethyl)isoindolin-1-one] are 130 nM, 1.7 x and 75 nM.
As for `Cn1cnnc1[C@H](F)C1(c2cccc(N3Cc4c(Br)cc(CNC5(C)CCC5)cc4C3=O)c2)COC1` [Compound 471, (R)-4-bromo-2-(3-(3-(fluoro(4-methyl-4H-1,2,4-triazol-3-yl)methyl)oxetan-3-yl)phenyl)-6-(((1-methylcyclobutyl)amino)methyl) isoindolin-1-one], in experiment [1], the IC50 is 6.8 nM and the “(fold-selectivity)” value is on record as “(0.83x)”. For the same compound, it took 8.2 nM to reach half-maximal inhibition in experiment [2] (IC50).
`Cn1cnnc1[C@@H](F)C1(c2cccc(N3Cc4c(cc(CN5CC(C)(O)C5)cc4C(F)(F)F)C3=O)c2)CC1` (single isomer, unassigned) [Compound 29]: in experiment [1], the IC50 stood at 230 nM and the “(fold-selectivity)” value came to 1.8x. This compound returned an IC50 in experiment [2] of 120 nM.
The corresponding values for `CN1C[C@@H]2C[C@H]1CN2Cc1cc2c(c(C(F)(F)F)c1)CN(c1cccc(C3(Cc4nncn4C)CC(F)(F)C3)c1)C2=O` [Compound 414, 2-(3-(3,3-difluoro-1-((4-methyl-4H-1,2,4-triazol-3-yl)methyl)cyclobutyl)phenyl)-6-(((1S,4S)-5-methyl-2,5-diazabicyclo[2.2.1]heptan-2-yl)methyl)-4-(trifluoromethyl)isoindolin-1-one] are 68 nM, “(0.77x)” and 88 nM.
For `Cn1cnnc1CC1(c2cc(NC3C4CCC3C4)nc(N3Cc4c(cccc4C(F)(F)F)C3=O)c2)COC1` (stereo not shown) [Compound 382, 2-(6-(bicyclo[2.1.1]hexan-5-ylamino)-4-(3-((4-methyl-4H-1,2,4-triazol-3-yl)methyl)oxetan-3-yl)pyridin-2-yl)-4-(trifluoromethyl)isoindolin-1-one], in that order: 20000 nM, “(24x)” and 820 nM.
For `Cn1cnnc1[C@H](F)C1(c2cccc(N3Cc4c(Br)cccc4C3=O)c2)COC1` [Compound 203, (R)-4-bromo-2-(3-(3-(fluoro(4-methyl-4H-1,2,4-triazol-3-yl)methyl)oxetan-3-yl)phenyl)isoindolin-1-one], the IC50 in experiment [1] turned out to be 400 nM; in experiment [2] it was 200 nM. In experiment [1], the “(fold-selectivity)” value was 2.0x.
The corresponding values for `Cn1cnnc1[C@H](F)C1(c2cccc(N3Cc4c(cc(CN5CC6(C5)CC6(F)F)cc4C(F)(F)F)C3=O)c2)COC1` [Compound 153, (R)-6-((1,1-difluoro-5-azaspiro[2.3]hexan-5-yl)methyl)-2-(3-(3-(fluoro(4-methyl-4H-1,2,4-triazol-3-yl)methyl)oxetan-3-yl)phenyl)-4-(trifluoromethyl)isoindolin-1-one] are 60 nM, 27 nM and 2.2x.
As to `Cn1cnnc1[C@@H](F)[C@@](C)(F)c1cccc(N2Cc3c(cc(CN4CCC5(CC5)C4)cc3C(F)(F)F)C2=O)c1` [Compound 130, 6-(5-azaspiro[2.4]heptan-5-ylmethyl)-2-(3-((1R,2S)-1,2-difluoro-1-(4-methyl-4H-1,2,4-triazol-3-yl)propan-2-yl)phenyl)-4-(trifluoromethyl)isoindolin-1-one], the “(fold-selectivity)” value in experiment [1] amounted to 3.3x.
Turning to `Cn1cnnc1[C@H](F)[C@@](C)(F)c1cccc(N2Cc3c(cc(CN4CCC5(CC5)C4)cc3C(F)(F)F)C2=O)c1` [Compound 128, 6-(5-azaspiro[2.4]heptan-5-ylmethyl)-2-(3-((1S,2S)-1,2-difluoro-1-(4-methyl-4H-1,2,4-triazol-3-yl)propan-2-yl)phenyl)-4-(trifluoromethyl)isoindolin-1-one], the “(fold-selectivity)” value in experiment [1] came out at 3.4x.
As for `Cn1cnnc1[C@H](F)C1(c2cccc(N3Cc4c(Cl)cc(CNC5(C)CCC5)cc4C3=O)c2)COC1` [Compound 470, (R)-4-chloro-2-(3-(3-(fluoro(4-methyl-4H-1,2,4-triazol-3-yl)methyl)oxetan-3-yl)phenyl)-6-(((1-methylcyclobutyl)amino)methyl) isoindolin-1-one], in experiment [1], the “(fold-selectivity)” value is on record as “(0.70x)”.
For `Cn1cnnc1[C@@H](F)[C@](C)(F)c1cccc(N2Cc3c(cc(CN4CCC5(CC5)C4)cc3C(F)(F)F)C2=O)c1` [Compound 129, 6-(5-azaspiro[2.4]heptan-5-ylmethyl)-2-(3-((1R,2R)-1,2-difluoro-1-(4-methyl-4H-1,2,4-triazol-3-yl)propan-2-yl)phenyl)-4-(trifluoromethyl)isoindolin-1-one], the “(fold-selectivity)” value in experiment [1] was found to be 3.6x.
